Measurements published in patent US20260053827A1, “Cannabidiol Solid Dosage Forms” (priority 2024, published 2026).

Conditions: saturation solubility of CBD in the liquid lipid given as label; supernatant assayed
Description: Each liquid lipophilic material was heated at 40° C. for 30 minutes in an oven before being combined with the CBD. 10 g of CBD was combined with 5 g of lipophilic material to create a saturated mixture. […] After agitation the solutions were centrifuged at 14800 rpm for 90 minutes to separate out any remaining undissolved CBD crystals. The resulting supernatant was sampled and assayed for CBD content to confirm the saturation solubility of the lipid.

With `CCOCCOCCO` [Transcutol] the “CBD” value was 653.2 mg/g.
